These results are taken from ChEMBL document CHEMBL1139105, “1,2,3-Thiadiazole substituted pyrazolones as potent KDR/VEGFR-2 kinase inhibitors” (Bioorg Med Chem Lett, 2007).

Molecules are shown by their SMILES. Bounds are passed on as bounds.

Series [1] addresses Vascular endothelial growth factor receptor 2 (Homo sapiens, UniProt P35968). Description: Inhibition of human cytoplasmic VEGFR2 expressed in baculovirus after 15 mins by time resolved fluorescence assay.
The nature of series [2]: Half life in rat at 5 mg/kg, po. The series is classed as ADME, organism-based. More on the design: dose 5 mg/kg, route oral. The following applies: in vivo.
In series [3] the test system is Rattus norvegicus. Put plainly: (§1) Oral bioavailability in rat at 5 mg/kg. The series is classed as ADME, organism-based. Conditions: in vivo.
For series [4], the system named is Rattus norvegicus. Put plainly: (§2) AUC in rat at 5 mg/kg, po. The series is classed as ADME, organism-based, Plasma. More on the design: dose 5 mg/kg, route oral. Conditions: in vivo.
Series [5] can be described thus: Cmax in rat at 5 mg/kg, po. In kind it is ADME, organism-based. More on the design: dose 5 mg/kg, route oral. The following applies: in vivo.
Series [6] has as its system Rattus norvegicus. Put plainly: (§3) AUC in rat at 1 mg/kg, iv. In kind it is ADME, organism-based, Plasma. More on the design: dose 1 mg/kg, route intravenous. The following applies: in vivo.
The nature of series [7]: Clearance in rat at 1 mg/kg, iv. The series is classed as ADME, organism-based. More on the design: dose 1 mg/kg, route intravenous. The following applies: in vivo.
Series [8] in a line: Volume of distribution in rat at 1 mg/kg, iv. In kind it is ADME, organism-based. On the set-up: dose 1 mg/kg, route intravenous. Conditions: in vivo, read-out: Vdss.
A short description of series [9]: Half life in rat at 1 mg/kg, iv. In kind it is ADME, organism-based. More on the design: dose 1 mg/kg, route intravenous. The following applies: in vivo.
The target in series [10] is Vascular endothelial growth factor receptor 1 (Homo sapiens, UniProt P17948). Put plainly: Inhibition of VEGFR1.
Series [11] in a line: as §3. In kind it is ADME, organism-based, Plasma. On the set-up: dose 1 mg/kg, route intravenous. The following applies: plasma.
For series [12], the target named is Angiopoietin-1 receptor (Homo sapiens, UniProt Q02763). Put plainly: Inhibition of Tie2.
Sequence of Angiopoietin-1 receptor (Q02763 whole entry): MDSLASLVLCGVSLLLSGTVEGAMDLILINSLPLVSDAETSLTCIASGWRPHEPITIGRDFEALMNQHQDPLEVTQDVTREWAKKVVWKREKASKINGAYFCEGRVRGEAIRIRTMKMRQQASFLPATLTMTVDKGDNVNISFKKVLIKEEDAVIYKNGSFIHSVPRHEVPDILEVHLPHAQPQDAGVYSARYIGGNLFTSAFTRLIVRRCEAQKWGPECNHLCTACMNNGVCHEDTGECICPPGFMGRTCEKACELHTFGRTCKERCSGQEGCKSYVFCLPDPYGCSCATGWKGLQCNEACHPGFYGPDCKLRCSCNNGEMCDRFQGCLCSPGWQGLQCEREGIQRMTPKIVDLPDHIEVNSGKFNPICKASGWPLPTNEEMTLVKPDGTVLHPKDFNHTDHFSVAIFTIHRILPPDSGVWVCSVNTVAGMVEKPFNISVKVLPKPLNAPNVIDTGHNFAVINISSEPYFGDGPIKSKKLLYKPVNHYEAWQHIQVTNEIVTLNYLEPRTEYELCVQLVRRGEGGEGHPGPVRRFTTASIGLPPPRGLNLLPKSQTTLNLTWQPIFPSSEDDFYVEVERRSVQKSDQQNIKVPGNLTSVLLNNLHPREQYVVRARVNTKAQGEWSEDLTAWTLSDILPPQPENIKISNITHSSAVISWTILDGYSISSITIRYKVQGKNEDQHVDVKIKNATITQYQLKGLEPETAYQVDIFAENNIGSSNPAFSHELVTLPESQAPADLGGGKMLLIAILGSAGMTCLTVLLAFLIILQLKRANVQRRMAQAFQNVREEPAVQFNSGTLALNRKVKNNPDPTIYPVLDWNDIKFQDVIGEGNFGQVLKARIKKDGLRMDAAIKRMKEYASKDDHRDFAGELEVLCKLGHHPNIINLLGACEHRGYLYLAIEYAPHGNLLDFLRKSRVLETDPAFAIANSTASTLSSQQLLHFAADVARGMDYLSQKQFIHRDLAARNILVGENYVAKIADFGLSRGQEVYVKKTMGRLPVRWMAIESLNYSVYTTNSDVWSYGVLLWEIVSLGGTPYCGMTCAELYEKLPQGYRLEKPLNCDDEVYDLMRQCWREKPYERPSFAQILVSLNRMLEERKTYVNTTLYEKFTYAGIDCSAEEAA
Series [13] addresses Vascular endothelial growth factor receptor 3 (Homo sapiens, UniProt P35916). Put plainly: Inhibition of VEGFR3.
Series [14] addresses High affinity nerve growth factor receptor (Homo sapiens, UniProt P04629). Description: Inhibition of TRK A.
In series [15] the target is Proto-oncogene tyrosine-protein kinase Src (Homo sapiens, UniProt P12931). Put plainly: Inhibition of SRC.
Sequence of Proto-oncogene tyrosine-protein kinase Src (P12931 2-536 limits assumed): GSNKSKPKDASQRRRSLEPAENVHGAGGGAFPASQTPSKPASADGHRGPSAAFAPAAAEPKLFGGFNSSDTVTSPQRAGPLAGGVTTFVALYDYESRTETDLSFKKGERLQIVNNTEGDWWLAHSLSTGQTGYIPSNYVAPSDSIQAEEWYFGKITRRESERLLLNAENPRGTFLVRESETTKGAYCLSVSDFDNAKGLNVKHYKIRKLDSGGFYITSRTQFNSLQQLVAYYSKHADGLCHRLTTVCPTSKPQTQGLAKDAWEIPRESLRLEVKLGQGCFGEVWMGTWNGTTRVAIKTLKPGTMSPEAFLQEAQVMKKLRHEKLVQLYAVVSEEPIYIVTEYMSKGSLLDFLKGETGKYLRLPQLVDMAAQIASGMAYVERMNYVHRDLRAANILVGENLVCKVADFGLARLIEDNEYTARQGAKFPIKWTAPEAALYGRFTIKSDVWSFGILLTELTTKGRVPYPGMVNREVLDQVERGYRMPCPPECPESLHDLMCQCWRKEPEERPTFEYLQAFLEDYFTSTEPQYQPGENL
Series [16] in a line: as §1. The series is classed as ADME, organism-based. Conditions: in vivo.
Series [17] is described as follows: as §2. In kind it is ADME, organism-based, Plasma. More on the design: dose 5 mg/kg, route oral. The following applies: plasma.

Sequence of Vascular endothelial growth factor receptor 2 (P35968 whole entry): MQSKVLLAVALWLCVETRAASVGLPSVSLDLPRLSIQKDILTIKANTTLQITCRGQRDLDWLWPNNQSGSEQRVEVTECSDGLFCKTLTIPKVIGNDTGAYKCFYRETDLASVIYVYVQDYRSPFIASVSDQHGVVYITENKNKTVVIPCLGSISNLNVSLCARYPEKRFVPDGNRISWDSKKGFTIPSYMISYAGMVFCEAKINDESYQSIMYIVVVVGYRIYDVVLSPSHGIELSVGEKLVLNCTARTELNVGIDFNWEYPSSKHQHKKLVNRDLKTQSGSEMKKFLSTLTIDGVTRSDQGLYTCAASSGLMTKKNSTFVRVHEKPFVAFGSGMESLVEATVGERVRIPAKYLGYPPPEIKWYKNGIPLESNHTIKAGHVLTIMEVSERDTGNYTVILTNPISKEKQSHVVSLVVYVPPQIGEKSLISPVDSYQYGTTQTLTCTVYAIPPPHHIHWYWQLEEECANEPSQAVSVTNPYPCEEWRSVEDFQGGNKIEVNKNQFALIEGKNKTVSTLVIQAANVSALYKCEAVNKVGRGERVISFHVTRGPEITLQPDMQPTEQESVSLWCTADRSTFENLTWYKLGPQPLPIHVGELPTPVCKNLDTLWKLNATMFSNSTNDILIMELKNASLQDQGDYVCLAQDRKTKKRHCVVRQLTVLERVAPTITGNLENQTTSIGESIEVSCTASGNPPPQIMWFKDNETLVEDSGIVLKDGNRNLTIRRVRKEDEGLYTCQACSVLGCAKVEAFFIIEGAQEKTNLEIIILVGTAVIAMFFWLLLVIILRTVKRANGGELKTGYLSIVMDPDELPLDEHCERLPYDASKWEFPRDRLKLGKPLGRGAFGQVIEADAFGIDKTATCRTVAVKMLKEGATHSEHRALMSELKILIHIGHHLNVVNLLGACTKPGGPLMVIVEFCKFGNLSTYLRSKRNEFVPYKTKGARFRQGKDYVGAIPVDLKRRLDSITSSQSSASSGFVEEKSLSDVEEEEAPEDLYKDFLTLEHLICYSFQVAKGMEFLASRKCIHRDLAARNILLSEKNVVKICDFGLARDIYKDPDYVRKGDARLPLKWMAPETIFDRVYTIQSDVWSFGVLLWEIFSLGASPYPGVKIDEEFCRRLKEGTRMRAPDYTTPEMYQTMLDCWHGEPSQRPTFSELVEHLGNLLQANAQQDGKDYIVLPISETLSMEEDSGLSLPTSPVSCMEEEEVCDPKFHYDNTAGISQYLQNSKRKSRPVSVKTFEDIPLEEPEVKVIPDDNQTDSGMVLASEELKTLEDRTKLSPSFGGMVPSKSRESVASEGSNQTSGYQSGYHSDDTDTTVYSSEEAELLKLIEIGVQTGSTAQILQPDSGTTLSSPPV
Sequence of Vascular endothelial growth factor receptor 3 (P35916 whole entry): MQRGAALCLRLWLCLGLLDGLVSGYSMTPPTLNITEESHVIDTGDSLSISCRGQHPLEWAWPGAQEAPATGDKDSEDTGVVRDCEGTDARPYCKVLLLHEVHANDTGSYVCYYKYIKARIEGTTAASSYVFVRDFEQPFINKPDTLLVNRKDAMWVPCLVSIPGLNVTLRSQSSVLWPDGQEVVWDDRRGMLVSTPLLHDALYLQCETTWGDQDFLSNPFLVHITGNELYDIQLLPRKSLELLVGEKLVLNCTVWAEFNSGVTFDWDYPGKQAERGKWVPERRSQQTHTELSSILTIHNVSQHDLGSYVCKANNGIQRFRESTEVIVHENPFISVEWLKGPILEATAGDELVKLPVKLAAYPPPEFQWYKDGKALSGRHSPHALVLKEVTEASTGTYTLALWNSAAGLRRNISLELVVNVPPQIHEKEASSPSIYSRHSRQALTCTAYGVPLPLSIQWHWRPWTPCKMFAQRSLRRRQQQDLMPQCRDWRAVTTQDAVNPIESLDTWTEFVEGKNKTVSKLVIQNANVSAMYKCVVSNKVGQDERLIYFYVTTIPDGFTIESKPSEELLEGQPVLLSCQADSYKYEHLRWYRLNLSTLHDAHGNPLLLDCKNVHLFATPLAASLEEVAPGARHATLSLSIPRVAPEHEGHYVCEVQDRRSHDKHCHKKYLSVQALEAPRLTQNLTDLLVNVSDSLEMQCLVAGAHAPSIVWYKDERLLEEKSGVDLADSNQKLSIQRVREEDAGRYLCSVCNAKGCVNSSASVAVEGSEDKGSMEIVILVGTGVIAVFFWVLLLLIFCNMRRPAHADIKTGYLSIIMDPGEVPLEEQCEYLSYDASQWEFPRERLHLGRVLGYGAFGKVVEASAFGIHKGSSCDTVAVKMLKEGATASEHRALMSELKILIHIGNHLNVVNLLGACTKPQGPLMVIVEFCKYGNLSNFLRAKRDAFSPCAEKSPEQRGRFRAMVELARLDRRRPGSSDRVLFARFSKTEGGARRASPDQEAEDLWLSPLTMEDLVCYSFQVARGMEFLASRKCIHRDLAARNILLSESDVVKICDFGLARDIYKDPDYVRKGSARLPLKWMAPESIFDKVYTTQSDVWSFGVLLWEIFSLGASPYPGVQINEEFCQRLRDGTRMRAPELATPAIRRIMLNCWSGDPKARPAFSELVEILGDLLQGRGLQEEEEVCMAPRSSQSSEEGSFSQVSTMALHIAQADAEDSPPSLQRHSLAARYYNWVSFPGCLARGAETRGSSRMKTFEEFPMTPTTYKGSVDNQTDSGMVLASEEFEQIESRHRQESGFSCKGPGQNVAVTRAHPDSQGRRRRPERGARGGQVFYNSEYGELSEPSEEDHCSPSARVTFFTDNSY

`Cc1nnsc1C1=NNC(=O)/C1=C\c1c[nH]c2ccccc12`: the half-maximal inhibitory concentration (IC50) in series [1] is over 1000 nM.
Same read-out and setting: with `Cc1nnsc1C1=NNC(=O)/C1=C\c1cn(C)c2ccc(C#N)cc12` the figure was over 300 nM.
With `Cc1nnsc1C1=NNC(=O)/C1=C\c1cn(C)c2ccc(F)cc12`, the half-life in series [2] was 84 min; in series [9], 30 min. Besides, the F in series [3] was found to be 29%. Further, the AUC in series [4] worked out at 507 ng·h/mL; in [6], 727 ng·h/mL. In [5], this molecule had a Cmax of 356 ng/mL. In addition, the clearance in series [7] was 25 mL/min/kg. Moreover, the Vd in [8] worked out at 1.1 L/kg.
Turning to `Cc1nnsc1C1=NNC(=O)/C1=C\c1c[nH]c2ccc(Cl)cc12`, in series [1], the IC50 was over 300 nM.
On to `CCOc1cccc2c1c(/C=C1\C(=O)NN=C1c1snnc1C)cn2C`, for which the IC50 in [10] is over 3000 nM; in [12] it was over 10000 nM; in series [13], 16 nM; in [14], 36 nM; in series [15], 463 nM. This molecule gave an AUC in series [11] of 1140 ng·h/mL. Besides, in series [7], the clearance is 15 mL/min/kg. In addition, in [8], the Vd was 1.1 L/kg. Besides, the half-life in [9] was 54 min.
With `Cn1cc(/C=C2\C(=O)NN=C2c2nccs2)c2c(F)cccc21`, the half-life was 72 min in [2] and 36 min in series [9]. In series [16], this molecule returned a bioavailability of 3%. Further, the exposure (AUC) in series [17] was determined as 1040 ng·h/mL; in series [11], 3600 ng·h/mL. In [5], this molecule gave a peak concentration (Cmax) of 139 ng/mL. In [7], this molecule yielded a clearance of 4.6 mL/min/kg. In series [8], the Vd turned out to be 0.23 L/kg.
With `COc1cccc2c1c(/C=C1\C(=O)NN=C1c1snnc1C)cn2C`, in series [11], the AUC was 192 ng·h/mL. For the same molecule, in series [7], the clearance came to 87 mL/min/kg. In addition, the Vd in series [8] amounted to 2.2 L/kg. In addition, the half-life in series [9] is 18 min.
